Laboratory results from the NIST ThermoML archive (doi:10.1016/j.jct.2009.06.009).
Values joined by “and” are separate entries in the source; they are usually repeats but may differ in a detail not shown here. Equal entries are not always repeated. ± gives the expanded uncertainty stated by the source.

Details: Liquid, Closed cell (Static) method

Q: For FC(F)F [trifluoromethane], which “vapor or sublimation pressure” value (283.15 K) is on record?
A: 3246 ± 9 kPa and 3242 ± 9 kPa

Q: And the “vapor or sublimation pressure” value (293.15 K)?
A: 4158 ± 10 kPa and 4162 ± 10 kPa

Q: What does the source list for CCCC [butane]?
A: vapor or sublimation pressure (283.15 K): 148 ± 2 kPa; vapor or sublimation pressure (293.15 K): 208 ± 2 kPa; vapor or sublimation pressure (303.15 K): 282 ± 2 kPa; vapor or sublimation pressure (313.15 K): 378 ± 2 kPa

Q: What does the source list for CCC [propane]?
A: vapor or sublimation pressure (283.15 K): 638 ± 3 kPa; vapor or sublimation pressure (293.15 K): 840 ± 3 kPa; vapor or sublimation pressure (303.15 K): 1083 ± 3 kPa; vapor or sublimation pressure (313.15 K): 1375 ± 4 kPa
